From ChEMBL document CHEMBL1201862, “PubChem BioAssay data set” (2004)
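Method: 48-hour compound exposure of cells in 96-well plates, five concentrations, linear interpolation of endpoints. GI50: concentration for 50% inhibition of growth.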 Active and inactive are the calls of the source. Rule as the data show it: active = GI50 up to about 1.1 µM and inactive = higher.

Assays:
Experiment in all cases: growth of human tumour cells (NCI), 48 h
U-251 = tested on: U-251
HOP-62 = tested on: HOP-62
HT-29 = tested on: HT-29
SN12C = tested on: SN12C
SNB-75 = tested on: SNB-75
CAKI-1 = tested on: CAKI-1
SK-MEL-5 = tested on: SK-MEL-5
RXF 393 = tested on: RXF 393
RPMI-8226 = tested on: RPMI-8226
MOLT-4 = tested on: MOLT-4
IGROV-1 = tested on: IGROV-1
SK-MEL-2 = tested on: SK-MEL-2
UACC-62 = tested on: UACC-62
OVCAR-4 = tested on: OVCAR-4
SF-539 = tested on: SF-539
HL-60 = tested on: HL-60
UACC-257 = tested on: UACC-257
HOP-92 = tested on: HOP-92
OVCAR-3 = tested on: OVCAR-3
SNB-19 = tested on: SNB-19

Measured: GI50

COCCOCC(=O)N(CCn1ccc(NC(c2ccccc2)(c2ccccc2)c2ccccc2)nc1=O)CCn1cnc2nc(N)[nH]c(=O)c21
inactive: U-251 > 100 µM | HOP-62 > 100 µM | HT-29 > 100 µM | SN12C > 100 µM | SNB-75 > 100 µM | CAKI-1 > 100 µM | SK-MEL-5 > 100 µM | RXF 393 > 100 µM | RPMI-8226 > 100 µM | MOLT-4 > 100 µM | IGROV-1 > 100 µM | SK-MEL-2 > 100 µM | UACC-62 > 100 µM | OVCAR-4 > 100 µM | SF-539 > 100 µM | HL-60 > 100 µM | UACC-257 > 100 µM | HOP-92 > 100 µM | OVCAR-3 > 100 µM

C=C1C(=O)OC2C=C(CCC(C)=O)C(C)C(OC(C)=O)CC12 (configuration not stated)
inactive: U-251 17.1 µM | HOP-62 > 10 µM | HT-29 11.8 µM | SN12C 15.7 µM | SNB-75 10.8 µM | CAKI-1 8.83 µM | RXF 393 2.41 µM | RPMI-8226 4.52 µM | MOLT-4 6.1 µM | IGROV-1 21.5 µM | SK-MEL-2 14.2 µM | UACC-62 12.6 µM | OVCAR-4 13.1 µM | SNB-19 17.6 µM | SF-539 15.2 µM | HL-60 3.33 µM | HOP-92 3.99 µM | OVCAR-3 12.7 µM

O=C(CCCN1CCC2(CC1)CC(=O)N(N1CCCCCC1)C2=O)c1ccccc1
inactive: U-251 > 100 µM | HOP-62 > 100 µM | HT-29 67.1 µM | SN12C > 100 µM | SNB-75 > 100 µM | CAKI-1 > 100 µM | SK-MEL-5 > 100 µM | RXF 393 > 100 µM | RPMI-8226 > 100 µM | MOLT-4 > 100 µM | IGROV-1 > 100 µM | SK-MEL-2 > 100 µM | UACC-62 > 100 µM | OVCAR-4 > 100 µM | SNB-19 > 100 µM | SF-539 > 100 µM | HL-60 > 100 µM | UACC-257 > 100 µM | HOP-92 > 100 µM | OVCAR-3 > 100 µM

COc1c2c(cc3c1-c1c(cc4c(c1OC)OCO4)C1OC3C(C)C1C)OCO2.COc1cc2c(c(OC)c1OC)-c1c(cc3c(c1OC)OCO3)C1OC2C(C)C1C (configuration not stated)
inactive: U-251 > 100 µM | HOP-62 > 100 µM | HT-29 88.7 µM | SN12C > 100 µM | SNB-75 33 µM | CAKI-1 > 100 µM | SK-MEL-5 78 µM | RXF 393 > 100 µM | RPMI-8226 33 µM | MOLT-4 22.3 µM | IGROV-1 70.6 µM | SK-MEL-2 > 100 µM | UACC-62 73.8 µM | OVCAR-4 > 100 µM | SNB-19 > 100 µM | SF-539 > 100 µM | HL-60 28.9 µM | UACC-257 73.1 µM | HOP-92 > 100 µM | OVCAR-3 84.5 µM

CC1(C)C(O)C[C@@H](O)[C@@]2(C)C1CC[C@]1(C)C2C[C@@H](O)[C@@H]2C([C@@]3(C)CC[C@@H](C(C)(C)O)O3)CCC21C (some centres not stated)
inactive: U-251 12.9 µM | HOP-62 16.6 µM | HT-29 17.6 µM | SN12C 13.8 µM | SNB-75 15 µM | CAKI-1 18.3 µM | SK-MEL-5 10.4 µM | RXF 393 13.4 µM | RPMI-8226 16.7 µM | MOLT-4 22 µM | IGROV-1 14.5 µM | SK-MEL-2 14.7 µM | UACC-62 9.93 µM | OVCAR-4 22.4 µM | SNB-19 14.2 µM | SF-539 14.2 µM | HL-60 14.2 µM | UACC-257 21 µM | HOP-92 9.68 µM | OVCAR-3 15.7 µM
